ChEMBL document CHEMBL5257085, “Siderophores: Chemical tools for precise antibiotic delivery” (Bioorg Med Chem Lett, 2023)
Converted amounts (≈) assume the structure as drawn. Blank lines part the entries; values can stand above or below the molecule they belong to.

Tests used:
[1] = tested on: Acinetobacter baumannii; assay: Potentiation of imipenem-induced antibacterial activity against OXA-235 producing Acinetobacter baumannii ATCC 17978 assessed as fold change in imipenem MIC; assay type: functional
[2] = tested on: Acinetobacter baumannii; assay: Potentiation of imipenem-induced antibacterial activity against OXA-143 producing Acinetobacter baumannii ATCC 17978 assessed as fold change in imipenem MIC; assay type: functional
[3] = tested on: Acinetobacter baumannii; assay: Potentiation of imipenem-induced antibacterial activity against OXA-58 producing Acinetobacter baumannii ATCC 17978 assessed as fold change in imipenem MIC; assay type: functional
[4] = tested on: Acinetobacter baumannii; assay: Potentiation of imipenem-induced antibacterial activity against OXA-24 producing Acinetobacter baumannii ATCC 17978 assessed as fold change in imipenem MIC; assay type: functional
[5] = tested on: Acinetobacter baumannii; assay: Potentiation of imipenem-induced antibacterial activity against OXA-23 producing Acinetobacter baumannii ATCC 17978 assessed as fold change in imipenem MIC; assay type: functional
[6] = tested on: Pseudomonas aeruginosa; assay: Antibacterial activity against Pseudomonas aeruginosa assessed as inhibition of bacterial growth incubated for 18 to 48 hrs by two-fold serial dilution method; assay type: functional; details: time 18-48 hrs
[7] = biological target: DNA gyrase (Escherichia coli, UniProt P0AES4+P0AES6); assay: Inhibition of Escherichia coli DNA gyrase ATPase activity using pBR322 as substrate incubated for 10 mins in presence of NADH and ATP by supercoiling assay; assay type: protein-complex assay
[8] = tested on: Escherichia coli; assay: Antibacterial activity against Escherichia coli JW5503 harbouring tolC-knock out mutant assessed as inhibition of bacterial growth incubated for 24 hrs by CLSI protocol based broth microdilution method; assay type: functional
[9] = tested on: Pseudomonas aeruginosa; assay: Antibacterial activity against IMP-1 producing Pseudomonas aeruginosa assessed as inhibition of bacterial growth by CLSI protocol based broth microdilution method; assay type: functional
[10] = tested on: Pseudomonas aeruginosa; assay: Antibacterial activity against VIM-2 producing Pseudomonas aeruginosa assessed as inhibition of bacterial growth by CLSI protocol based broth microdilution method; assay type: functional
[11] = tested on: Klebsiella pneumoniae; assay: Antibacterial activity against NDM-1 producing Klebsiella pneumoniae assessed as inhibition of bacterial growth by CLSI protocol based broth microdilution method; assay type: functional
[12] = tested on: Klebsiella pneumoniae; assay: Antibacterial activity against KPC-2 producing Klebsiella pneumoniae assessed as inhibition of bacterial growth by CLSI protocol based broth microdilution method; assay type: functional
[13] = tested on: Klebsiella pneumoniae; assay: Antibacterial activity against KPC-3 producing Klebsiella pneumoniae assessed as inhibition of bacterial growth by CLSI protocol based broth microdilution method; assay type: functional
[14] = tested on: Escherichia coli; assay: Antibacterial activity against NDM-1 producing Escherichia coli assessed as inhibition of bacterial growth by CLSI protocol based broth microdilution method; assay type: functional
[15] = tested on: Acinetobacter baumannii; assay: Antibacterial activity against OXA-23 producing Acinetobacter baumannii assessed as inhibition of bacterial growth by CLSI protocol based broth microdilution method; assay type: functional
[16] = tested on: Stenotrophomonas maltophilia; assay: Antibacterial activity against L1 producing Stenotrophomonas maltophilia assessed as inhibition of bacterial growth by CLSI protocol based broth microdilution method; assay type: functional

SMILES: C[C@]1(COC(=O)Cc2ccc(O)c(O)c2)[C@H](C(=O)O)N2C(=O)/C(=C/c3ccccn3)[C@H]2S1(=O)=O
fold change (FC) [1]: 32
fold change (FC) [2]: 32
fold change (FC) [3]: 32
fold change (FC) [4]: 32
fold change (FC) [5]: 32

SMILES: Cc1[nH]c(C(=O)N[C@H]2CCc3nc(NC(=O)CNC(=O)c4ccc(O)c(O)c4)sc3C2)c(Cl)c1Cl
IC50 [7]: 58 nM
MIC [8]: 14 µg/mL (≈ 26 µM)

SMILES: CC(C)(O/N=C(\C(=O)N[C@@H]1C(=O)N2C(C(=O)[O-])=C(C[N+]3(CCNC(=O)c4ccc(O)c(O)c4Cl)CCCC3)CS[C@H]12)c1csc(N)n1)C(=O)O [CEFIDEROCOL]
MIC50 [9]: 0.12 µg/mL (≈ 0.16 µM)
MIC50 [10]: 0.12 µg/mL (≈ 0.16 µM)
MIC50 [11]: 0.12 µg/mL (≈ 0.16 µM)
MIC50 [12]: 0.12 µg/mL (≈ 0.16 µM)
MIC50 [13]: 0.12 µg/mL (≈ 0.16 µM)
MIC50 [14]: 0.12 µg/mL (≈ 0.16 µM)
MIC50 [15]: 0.12 µg/mL (≈ 0.16 µM)
MIC50 [16]: 0.12 µg/mL (≈ 0.16 µM)

Results, then the molecule that gave them:

MIC [6]: 128 µM (≈ 92.9 µg/mL)
SMILES: CC(=O)NC[C@H]1CN(c2ccc(N3CCN(C(=O)Cn4cc(COC(=O)NCCCCNC(=O)c5cccc(O)c5O)nn4)CC3)c(F)c2)C(=O)O1

MIC [6]: > 1020 µM
SMILES: CC(=O)NC[C@H]1CN(c2ccc(N3CCOCC3)c(F)c2)C(=O)O1 [LINEZOLID]
